Molecular target: Alpha-glucosidase (Saccharomyces cerevisiae S288c, UniProt P53341+P38158+P07265)
Experiment: Inhibition of Saccharomyces cerevisiae alpha-glucosidase using nitrophenol-alpha-D-glucopyranoside (pNPG) as substrate incubated for 15 mins
Assay type: protein assay

Row | IC50 | Compound
1 | 140.2 µM | COc1ccc(/C=N/Nc2nnc3n2N=C(c2ccccc2)CS3)cc1OC
2 | 135.7 µM | Oc1cccc(/C=N/Nc2nnc3n2N=C(c2ccccc2)CS3)c1
3 | 42.36 µM | Clc1cccc(/C=N/Nc2nnc3n2N=C(c2ccccc2)CS3)c1
4 | 213.5 µM | Oc1ccc(/C=N/Nc2nnc3n2N=C(c2ccccc2)CS3)cc1
5 | 32.12 µM | Brc1ccccc1/C=N/Nc1nnc2n1N=C(c1ccccc1)CS2
6 | 50.24 µM | Fc1ccc(/C=N/Nc2nnc3n2N=C(c2ccccc2)CS3)cc1
7 | 85.86 µM | COc1ccc(/C=N/Nc2nnc3n2N=C(c2ccccc2)CS3)cc1
8 | 91.47 µM | COc1cc(/C=N/Nc2nnc3n2N=C(c2ccccc2)CS3)cc(OC)c1OC

From ChEMBL document CHEMBL5634160, “Synthesis, biological evaluation and action mechanism of 7H-[1,2,4] triazolo [3,4-b] [1,3,4] thiadiazine-phenylhydrazone derivatives as α-glucosidase inhibitors” (Eur J Med Chem, 2023)
